Results as given in patent US20040063692A1, “Bazedoxifene treatment regimens” (Wyeth, priority 2002, published 2004).

Legend:
Format in all cases: in vivo, Female Sprague Dawley CD rats
[1] = Change in body weight in ovariectomized rats, daily or once weekly dosing; conditions: ovx rats, 6 weeks
Description: (§1) The ability of bazedoxifene to be successfully administered on an extended dosing regimen was established in an in vivo standard pharmacological test procedure which evaluated bone mineral density (BMD), change in body weight, and uterine weight using bazedoxifene acetate as a representative compound of this invention. The following briefly describes the procedure used and results obtained in the standard pharmacological test procedure.
(§2) Female Sprague Dawley CD rats, ovariectomized (ovx) or sham ovx, were obtained 1 day after surgery from Taconic Farm (weight range 240-275 g). They were housed 3 or 4 rats/cage in a room on a 14/10 (light/dark) schedule and provided with food (Purina 500 rat chow) and water ad libitum. Treatment for all studies began 1 day after the animals arrival and dosed either daily or once weekly as indicated for 6 weeks. A group of age matched sham operated rats not receiving any treatment served as an intact, estrogen replete control group for each study. All treatments were prepared in 1% tween 80 in normal saline at defined concentrations so that the treatment volume was 0.1 mL/100 g body weight.
(§3) One week after BMD evaluation the rats were euthanized by carbon dioxide suffocation. The uteri were removed and the weights taken. The following table summarizes the results that were obtained. The sham group was not ovariectomized; all other groups were ovariectomized. In the table below, bazedoxifene acetate is abbreviated as BZA.

[2] = test system: ovariectomized (ovx) rats; test: Bone mineral density (BMD) in ovariectomized rats, daily or once weekly dosing; conditions: measured five weeks after initiation of treatment
Description: as §1, §2
Five weeks after the initiation of treatment and one week prior to the termination of the study, each rat was evaluated for bone mineral density (BMD). The BMD's of the proximal tibiae (PT) and fourth lumbar vertabrae (L4) were measured in anesthetized rats using a dual energy X-ray absorptiometer (Eclipse XR-26, Norland Corp. Ft. Atkins, Wis.). The dual energy X-ray absorptiometer (DXA) measurements for each rat were performed as follows: Fifteen minutes prior to DXA measurements, the rat was anesthetized with an intraperitoneal injection of 100 mg/kg ketamine (Bristol Laboratories, Syracuse, N.Y.) and 0.75 mg/kg acepromazine (Aveco, Ft.Dodge, Iowa). The rat was placed on an acrylic table under the DXA scanner perpendicular to its path; the limbs were extended and secured with paper tape to the surface of the table. A preliminary scan was performed at a scan speed of 50 mm/second with a scan resolution of 1.5 mm×1.5 mm to determine the region of interest in PT and L4. Small subject software was employed at a scan speed of 10 mm/second with resolution of 0.5 mm X 0.5 mm for final BMD measurements. The software allows the operator to define a 1.5 cm wide area to cover the total length of L4. The BMDs for respective sites were computed by the software as a function of the attenuation of the dual beam (46.8 KeV and 80 KeV) X-ray generated by the source underneath the subject and the detector travelling along the defined area above the subject. The data for BMD values (expressed in g/cm2) and individual scans were stored for statistical analysis.

[3] = test system: ovariectomized (ovx) rats; test: Uterine weight in ovariectomized rats, daily or once weekly dosing; conditions: 6 weeks
Description: as §1, §2, §3

With `Cc1c(-c2ccc(O)cc2)n(Cc2ccc(OCCN3CCCCCC3)cc2)c2ccc(O)cc12` [BZA, 1-[4-(2-azepan-1-yl-ethoxy)-benzyl]-2-(4-hydroxy-phenyl)-3-methyl-1H-indol-5-ol] the “Δ Body Weight, Mean ± SEM” value ([1]; 0.3 mg/kg 1×/week) was 80.5 ± 2.0 g, the “Δ Body Weight, Mean ± SEM” value ([1]; 0.3 mg/kg 7×/week) was 60 ± 5.6 g and the “Δ Body Weight, Mean ± SEM” value ([1]; 1.0 mg/kg 1×/week) was 71.3 ± 4.8 g. For the same compound, the “Δ Body Weight, Mean ± SEM” value ([1]; 3.0 mg/kg 1×/week) was 59.3 ± 7.0 g, the “Total BMD, Mean ± SEM” value ([2]; 0.3 mg/kg 1×/week) was 556.56 ± 20.5 mg/mL and the “Trabecular BMD, Mean ± SEM” value ([2]; 0.3 mg/kg 1×/week) was 361.93 ± 34.5 mg/mL. For the same compound, the “Total BMD, Mean ± SEM” value ([2]; 0.3 mg/kg 7×/week) was 604.33 ± 18.6 mg/mL, the “Trabecular BMD, Mean ± SEM” value ([2]; 0.3 mg/kg 7×/week) was 425.90 ± 26.3 mg/mL and the “Total BMD, Mean ± SEM” value ([2]; 1.0 mg/kg 1×/week) was 562.90 ± 7.7 mg/mL. For the same compound, the “Trabecular BMD, Mean ± SEM” value ([2]; 1.0 mg/kg 1×/week) was 353.03 ± 15.7 mg/mL, the “Total BMD, Mean ± SEM” value ([2]; 3.0 mg/kg 1×/week) was 589.36 ± 10.9 mg/mL and the “Trabecular BMD, Mean ± SEM” value ([2]; 3.0 mg/kg 1×/week) was 427.00 ± 10.0 mg/mL. The “Uterine Weight, Mean ± SEM” value ([3]; 0.3 mg/kg 1×/week) was 131.3 ± 7.0 mg, the “Uterine Weight, Mean ± SEM” value ([3]; 0.3 mg/kg 7×/week) was 140.3 ± 6.3 mg and the “Uterine Weight, Mean ± SEM” value ([3]; 1.0 mg/kg 1×/week) was 149.9 ± 5.0 mg. The “Uterine Weight, Mean ± SEM” value ([3]; 3.0 mg/kg 1×/week) was 127.3 ± 10.9 mg.
